Source: patent US20260023070A1, “OPTOGENETIC ALPHA-SYNUCLEIN AGGREGATION SYSTEM-BASED COMPOUND SCREENING PLATFORM IN PD-hiPSC-mDA NEURONS” (The Johns Hopkins University, priority 2022, published 2026)

Tests used:
opto-α-syn SH-SY5Y cells = assay: OASIS-based high-content imaging assay of light-induced α-syn aggregation (5G4 staining, Aggregates Induction Score); assay type: cell-based, human; settings: for AIS compared to blue light-illuminated DMSO control: two independent experiments, 24-well culture conditions, blue light stimulation; for AIS, aggregates induction score: validation of 19 hits, 24-well plates, blue light, AIS normalized to positive control (blue light, DMSO) set as 1.0
Procedure: The opto-α-syn expressing SH-SY5Y cells were seeded in 96-well black flat bottom imaging microplates (Falcon) at 30,000 cells per well in 100 μL of complete media using E1-ClipTip electronic multichannel pipette (Thermo Fisher Scientific) and incubated in 37° C. and 5% CO2 humidified incubator. After 18 h of incubation, 10 μL of 10 μM compounds (column 2 to 10) or 1% DMSO (column 1 and 12) were added (final concentration of DMSO is 0.1%). In order to induce aggregations, the plates were illuminated with blue light (26 μW/mm^2) on customized blue light illumination 96-well plates for 2 h. Afterward, cells were fixed in 4% paraformaldehyde (PFA) for 15 min and stained with the aggregated-α-syn antibody (5G4) after permeabilization with 0.1% Triton X-100/0.5% BSA/PBS solution. […] To analyze images, the automated aggregation quantification algorithm and cell counting algorithm in the form of macro are developed using ImageJ software. Briefly, the algorithm includes the inversion, subtracting background, threshold selection, analyzing particles with ranged size and circularity. The Aggregates Induction Score (AIS) is calculated using, the following equation: […]
where N^agg is the number of aggregates, ^Ntotal is the number of total cells. The AIS in each well is normalized by the AIS in positive control which is set as 1.0. […] The hit selection strategy was based on calculated AIS; hits were defined as AIS<0.5. […] Two independent experiments were performed, and total 10 images per well are analyzed to calculate AIS.
As illustrated in FIGS. 8A-8E, high-content imaging screening with the optogenetic α-syn aggregation system was performed, following the schematic representation of the process of high-content imaging (HCI) screening with optogenetics-assisted method of alpha-synuclein aggregation induction system (OASIS) (FIG. 8A). SH-SY5Y cells expressing opto-α-syn were in dark or exposed to blue light (26 μW/mm^2 at 470 nm, 1 Hz, 1 s) for 1.5 h under 96-well plate culture conditions, and then immunostained with 5G4 antibody. The equation of Aggregates Induction Score (AIS) (FIG. 8B) was used for the calculation of Z′-factor for HCI screening with OASIS (FIG. 8C). […] Arrow represents the degree of separation (Z′-factor) between light-illuminated and darkness controls. […] Detailed information of numbered compounds was described in Table 1. One-way ANOVA followed by Dunnett's post hoc test (n=10 or 20, 5 or 10 images each from two independent experiments). *P<0.05, **P<0.01, ***P<0.001, ****P<0.0001.
As illustrated in FIGS. 9A-9B, high-content imaging screening with the optogenetic α-syn aggregation system was performed. The measurement of 5G4^+ aggregates in opto-mock or opto-α-syn SH-SY5Y neuronal cells was assessed. Cells were in dark or exposed to blue light (26 μW/mm^2 at 470 nm, 1 Hz, 1 s) for 1.5 h, and then immunostained with 5G4 antibody. […] Images were converted to grayscale, and a threshold was adjusted to exclude the background based on the size of particles. Once the value of threshold was determined, all the images were applied with the fixed threshold, and then the number of aggregates was measured (FIG. 9A). Number of DAPI from the original images were counted (FIG. 9B). Representative images of opto-α-syn SH-SY5Y neuronal cells treated with 19 compounds under 24-well plate culture conditions were imaged. SH-SY5Y cells expressing opto-α-syn were in dark or exposed to blue light (34 μW/mm^2 at 470 nm, 1 Hz, 0.5 s) for 1.5 h, and then immunostained with 5G4 antibody.

[1] = test system: opto-α-syn PD hiPSC-derived mDA neurons; assay: Light-induced α-syn aggregation and neurotoxicity in opto-α-syn PD hiPSC-derived mDA neurons; assay type: cell-based, human; settings: blue light 7 days; compared to DMSO control; significant at 1 and 10 nM CDC, 10 and 100 nM BAG
Procedure: Whether these potential hit compounds can inhibit α-syn aggregation and rescue aggregation-induced neuronal toxicity was tested on PD hiPSC-derived mDA neurons. The top 5 ranked small compounds in FIGURE SE were selected and these compounds to were used to treat opto-α-syn PD hiPSC-derived mDA neurons at three different concentrations (1 nM, 10 nM, 100 nM) with blue light stimulation. […] Overall, the two compounds were finally selected among the potential hit drugs from our novel opto-α-syn neuronal cell model-based primary screening (FIG. 11D), and they considerably rescued neuronal cell death from aggregation-induced TH^+ mDA neuron-selective toxicity in PD-iPSC derived neurons. To identify possible molecules involved in this compound-mediated recovery of TH^+ mDA neurons, RNA-sequencing (RNA-seq) analysis was performed with four different samples (dark condition with DMSO, blue light stimulation with DMSO, blue light stimulation with BAG treatment, and blue light stimulation with CDC treatment). To find BAG- or CDC-responsive genes, differentially expressed genes (DEGs) of DMSO-treated samples upon blue light stimulation were first extracted, and then the DEGs were filtered with criteria of which became non-DEGs in response to CDC or BAG treatment. […]
The effect of 5 selected compounds on opto-α-syn-expressing PD hiPSC-derived mDA neurons was evaluated. […]

[2] = test system: mouse primary neurons treated with α-syn PFF; assay: α-syn PFF model in mouse primary neurons (TX-insoluble pathologic α-syn); assay type: cell-based
Procedure: To validate the effects of these two compounds on the OASIS-independent model, α-syn PFF were treated with mouse primary neurons and non-OASIS-human PD hiPSC-derived mDA neurons with CDC 021 and BAG 956.

[3] = test system: blue light-illuminated opto-α-syn-mDA neurons; assay: Autophagy and aggregate clearance in blue light-illuminated opto-α-syn-mDA neurons; assay type: cell-based, human; settings: additional treatment with BAG 956, blue light-illuminating condition
Procedure: Because autophagy can be activated by the inhibition of PI 3-kinase (PI3K) or the PDK1 pathway, it was tested whether treatment with BAG 956 can induce the autophagic flux to decrease α-syn aggregates in opto-α-syn mDA neurons and MOs.

SMILES: Cc1cc(Nc2nc(N[C@@H](C)c3ncc(F)cn3)ncc2Cl)n[nH]1 [AZD 1480]
- AIS compared to blue light-illuminated DMSO control (opto-α-syn SH-SY5Y cells): significant decrease
- AIS, aggregates induction score (opto-α-syn SH-SY5Y cells): 0.31

SMILES: CC(C)c1ccc2oc3nc(N)c(C(=O)O)cc3c(=O)c2c1 [Amlexanox]
- AIS, aggregates induction score (opto-α-syn SH-SY5Y cells): 0.53

SMILES: O=C1NC(=O)c2c1c1c3ccccc3[nH]c1c1[nH]c3ccccc3c21 [Arcyriaflavin A]
- AIS compared to blue light-illuminated DMSO control (opto-α-syn SH-SY5Y cells): significant decrease
- AIS, aggregates induction score (opto-α-syn SH-SY5Y cells): 0.37

SMILES: CC1(C)C(=O)N=C2C1=C(O)C(=O)c1ccccc12 [BVT 948]
- AIS compared to blue light-illuminated DMSO control (opto-α-syn SH-SY5Y cells): significant decrease
- AIS, aggregates induction score (opto-α-syn SH-SY5Y cells): 0.36

SMILES: COc1cc2nc(N3CCC(N4CCCCC4)CC3)nc(NC3CCCCCC3)c2cc1OC.Cl.Cl [C 021 dihydrochloride]
- AIS compared to blue light-illuminated DMSO control (opto-α-syn SH-SY5Y cells): significant decrease
- AIS, aggregates induction score (opto-α-syn SH-SY5Y cells): 0.19
- survival rate of TH+ mDA neurons [1]: significant increase
- pathologic α-syn in the Triton X-100 (TX)-insoluble fraction [2]: significantly reduced

SMILES: O=C1CCc2cc(OCCCCc3nnnn3C3CCCCC3)ccc2N1 [Cilostazol]
- AIS, aggregates induction score (opto-α-syn SH-SY5Y cells): 0.65

SMILES: CCCCCCCCCCC(C)(C)C(=O)Nc1c(OC)cc(OC)cc1OC [Compound C1976, CI 976]
- AIS, aggregates induction score (opto-α-syn SH-SY5Y cells): 0.63

SMILES: NS(=O)(=O)c1cc2c(cc1Cl)NC(C1CC3C=CC1C3)NS2(=O)=O (stereo not shown) [Cyclothiazide]
- AIS, aggregates induction score (opto-α-syn SH-SY5Y cells): 0.68

SMILES: C[C@@H]1C[C@H]2[C@@H]3CCC4=CC(=O)C=C[C@]4(C)[C@@]3(F)[C@@H](O)C[C@]2(C)[C@@]1(O)C(=O)CO [Dexamethasone]
- AIS, aggregates induction score (opto-α-syn SH-SY5Y cells): 0.74

SMILES: O=C(O)c1ccccc1C(=O)Nc1ccc(-c2ccccc2)cc1 [Kartogenin]
- AIS, aggregates induction score (opto-α-syn SH-SY5Y cells): 0.98

SMILES: COc1c(C)c2c(c(O)c1C/C=C(\C)CCC(=O)OCCN1CCOCC1)C(=O)OC2 [Mycophenolate mofetil]
- AIS, aggregates induction score (opto-α-syn SH-SY5Y cells): 0.71

SMILES: COc1c(C)c2c(c(O)c1C/C=C(\C)CCC(=O)O)C(=O)OC2 [Mycophenolic acid]
- AIS, aggregates induction score (opto-α-syn SH-SY5Y cells): 0.57

SMILES: CCCN(CCC)CCc1ccc(OC)c(OCCc2ccccc2)c1.Cl [NE 100 hydrochloride]
- AIS, aggregates induction score (opto-α-syn SH-SY5Y cells): 0.53

SMILES: CC(=O)c1cc2c(o1)C(=O)c1ccccc1C2=O [Napabucasin]
- AIS, aggregates induction score (opto-α-syn SH-SY5Y cells): 0.97

SMILES: CCOC(=O)c1ccc(N(C)c2csc(-c3ccccc3)n2)cc1 [Neuropathiazol]
- AIS, aggregates induction score (opto-α-syn SH-SY5Y cells): 0.73

SMILES: CN(C)CCc1c[nH]c2ccc(Cn3cncn3)cc12 [Rizatriptan benzoate]
- AIS, aggregates induction score (opto-α-syn SH-SY5Y cells): 0.59

SMILES: CCc1c(C(=O)Nc2cc(S(=O)(=O)N(CC)CC)ccc2O)[nH]c(C)c1C(C)=O [XD 14]
- AIS, aggregates induction score (opto-α-syn SH-SY5Y cells): 0.75

SMILES: CO/C1=C\C(C)=C\[C@@H](C)[C@@H](O)[C@@H](C)C/C(C)=C/C=C/[C@H](OC)[C@@H]([C@@H](C)[C@@H](O)[C@H](C)[C@@]2(O)C[C@@H](O)[C@H](C)[C@@H](C(C)C)O2)OC1=O [bafilomycin A1]
- BAG 956-mediated level of TH+ mDA neurons [3]: reversed
- BAG 956-mediated reduction of 5G4+ α-syn aggregates [3]: reversed
